Reference: patent US5157052A, “Method for inhibiting IgE production” (priority 1990, dated 1992)

System: IgE
Experiment: Inhibition of de novo IgE synthesis after oral (intragastric) administration
Type: in vivo, mouse (Balb/c female)
Settings: for IgE ± SD: 20 μg intragastric TID days 3 and 4
Experimental: ELISA (enzyme linked immunosorbant assay) measurements of IgE are as follows. About 5 μg of B1E3 antibody in 100 μl borate buffered saline (pH8.5) is added to wells of a NuncImmulon II 96 well plate (DiRuscio & Assoc., St. Louis, Mo.) at 37° C. for 90 minutes. The non-bound antibody is removed by flicking the plate. Unreacted sites on the plastic plate are blocked by adding about 200 μl of a 2% solution of newborn bovine serum (NBS) in PBS at 37° C. for 60 minutes. The standard IgE (or an unknown murine serum sample) is diluted to between about 4 ng/ml-256 ng/ml in Hanks-HS (20 mM Hepes, 2% NBS in Hanks Balanced Salt Solution, Gibco, Grand Island, N.Y.) or to 1/200 to 1/1000 in Hanks-HS respectively. 100 μl of standard (or unknown dilutions) are added in triplicate to the wells of the plate and allowed to absorb to B1E3 antibody at about 37° C. for 2-4 hours. The solution is removed by flicking the plate and each well is washed with about 0.5 ml 0.05% Tween 20-PBS 5 times. About 100 μl of biotinylated R1E4, called the primary antibody, diluted to 200 ng/ml is added to all wells and incubated at about 4° C. overnight. The solution is removed by flicking the plate and washed 5 times as described above. The developing reagent (Avidin and biotin-horse radish peroxidase) is incubated in 2% NBS in PBS at ambient temperature for 30 minutes, according to manufacturer's specifications (Vector Laboratories, Burlingame, Calif.). About 100 μl of developing reagent is added to each well and incubated at ambient temperature for 30 minutes. Colorimetric substrate for the developing reagent (ABTS peroxidase substrate system, KPL, Gaithersburg, Md.) is prepared by mixing equal volumes of solutions A and B and incubating at ambient temperature for 60 minutes. The developing reagent solution is removed by flicking the plate and washed 5 times as described above. About 100 μl of the mixture of substrates is added to each well and incubated at ambient temperature for 60 minutes. The optical density of each well is determined on a BioTek ELISA reader (Biotek Instruments, Inc., Burlington, Vermont) and the absorbance data transferred electronically to a DEC VAX mainframe computer. A standard curve is fitted to the IgE standard optical densities using straight line, linear regression statistical fits. IgE in the unknown serum samples is determined by comparing the optical density of the unknown to the standard curve and multiplying that number by the dilution of serum used in the assay.
Three groups of 4 Balb/c female mice per group are injected with both 100 μg FF1-4D5 antibody and 100 μg H∂A1 antibody (Groups B, C, and D). Another group of 4 Balb/c female mice is injected with PBS alone, unstimulated control Group A. One of the stimulated group were not given any prostaglandin control Group B. On day 3 and 4, individual groups receive an intragastric feeding TID of 0.25 ml of 20 μg of (±) methyl 11α,16-dihydroxy-16-methyl-9-oxoprosta-5Z,13E-dien-1-oate (Group C) or 20 μg of prostaglandin E2 (Group D) dissolved in PBS.

CCCCC(C)(O)C/C=C/[C@H]1[C@H](O)CC(=O)[C@@H]1C/C=C\CCCC(=O)OC (mixture of isomers) [(±) methyl 11α,16-dihydroxy-16-methyl-9-oxoprosta-5Z,13E-dien-1-oate]
inhibition of de novo IgE synthesis after oral administration (20 μg intragastric TID): significantly inhibits de novo IgE synthesis after oral administration | IgE ± SD (day 8 (stimulated control 5792, unstimulated 1015)): 1490 ± 525 ng/mL | IgE ± SD (day 10 (stimulated control 1498)): 1131 ± 198 ng/mL | IgE ± SD (day -1 baseline before treatment): 1115 ± 201 ng/mL
